Results: publication PMC9866541, “Flavonoid Derivatives as New Potent Inhibitors of Cysteine Proteases: An Important Step toward the Design of New Compounds for the Treatment of Leishmaniasis” (Microorganisms, 2023)

Tests used:
[1] = tested on: Promastigote forms of L. amazonensis; assay: Antipromastigote assay (MTT); type: cell-based, Leishmania amazonensis; details: for IC50: Leishmania amazonensis, L. amazonensis promastigotes, 72 h, 26 °C, MTT, highest concentration tested 10 µg/mL, read-out: Promastigote IC50; for SI (selectivity index): GL50 in NIH/3T3 cells / IC50 in extracellular promastigotes
Experimental: A standard strain of Leishmania (Leishmania amazonensis) (IFLA/BR/1967/PH8) was used for the evaluation of in vitro antileishmanial activity. The promastigote forms were grown in Schneider’s insect medium (Sigma-Aldrich®, SP/Brazil) supplemented with 20% foetal bovine serum (Sigma-Aldrich®, SP/Brazil), 10,000 U/mL penicillin, and 10 mg/mL streptomycin (Sigma-Aldrich®, SP/Brazil).
Promastigote forms of L. amazonensis in the log growth phase (10^e6 parasites/mL) were added to 96-well plates and incubated in sextuplicate with the test samples (0.25–10.0 µg/mL). The microplates were incubated at 26 °C for 72 h. Cell viability was assessed by adding 5 mg/mL of MTT ([3-(4,5-dimethylthiazol-2-yl)-2,5-diphenyltetrazolium bromide] (Sigma-Aldrich® SP/Brazil). Results were expressed as the half-maximal inhibitory concentration (IC50) calculated by a nonlinear dose–response regression curve using the statistical program GraphPad PRISM 5.0. Pentamidine (Sigma-Aldrich ® SP/Brazil; 0.25–10 µg/mL) was used as a positive control, and pure Schneider culture medium was used as a negative control.

rCPB2.8 [2] = target: T1, rCPB2.8 (Leishmania mexicana, UniProt P36400); assay: Determination of IC50 on rCPB2.8 (Z-FR-AMC); type: biochemical
T1 construct: recombinant enzymes (r) lacking the C-terminal region
T1 sequence (P36400 126-343): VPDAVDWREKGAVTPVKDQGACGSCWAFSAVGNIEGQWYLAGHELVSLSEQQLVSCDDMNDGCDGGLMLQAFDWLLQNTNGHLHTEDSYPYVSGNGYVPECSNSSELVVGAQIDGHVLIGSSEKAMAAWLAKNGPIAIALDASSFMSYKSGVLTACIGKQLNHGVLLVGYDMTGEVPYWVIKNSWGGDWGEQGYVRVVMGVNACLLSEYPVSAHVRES
Experimental: Cysteine proteases rCPB2.8, rCPB3, and rH84Y were assayed in 100 mM sodium acetate buffer containing 5 mM EDTA, 100 mM NaCl, 0.01% Triton X-100, and 20% glycerol, at pH 5.5. The enzymes were pre-incubated in the presence of 5 mM DTT for 5 min at 37 °C in a 1 mL final volume with constant stirring. Enzyme activities were monitored using fluorogenic probe Z-FR-AMC (9.25 µM final concentration), and the fluorescence was monitored by spectrofluorometry using fluorometer F2700 (Hitachi, Tokyo, Japan) set to λEx = 360 nm and λEm = 480 nm. The IC50 evaluation was performed using a progressive increase in the concentration of the compounds; the IC50 values were calculated using nonlinear regression, and the data were analysed by Grafit 5.0.13 software using Equation (1). (1) y=100%/1+(x/IC50)^S.

NIH/3T3 fibroblasts = assay: Cytotoxicity on mammalian cells (sulphorhodamine B); type: cell-based; details: for NIH/3T3 Cells GL50: 48 h, concentration that inhibited cell growth by 50%
Experimental: The cytotoxic effect of the test samples was evaluated on NIH/3T3 fibroblasts, obtained from the Rio de Janeiro Cell Bank (Brazil). Cells were seeded in 96-well plates ([…]). After 24 h of fixation, cells were incubated for 48 h with test samples at 0.25–250 µg/mL, in triplicate. […] Doxorubicin (0.025–25 µg/mL was used as a positive control. Cells were fixed by adding 20% trichloroacetic acid and were subsequently stained with sulphorhodamine B (0.1%) diluted in acetic acid after 48 h of exposure. Absorbance values were read on the PT-READER microplate instrument (Thermoplate®), and growth percentages were calculated according to procedures in the literature. Cytotoxicity activity was expressed as the concentration of drug that inhibited cell growth by 50% (GL50), and growth was determined by nonlinear regression using Origin 6.0 software (OriginLab). The statistical significance was analysed using an unpaired Student’s t-test or a one-way analysis of variance. A p-value < 0.05 was considered statistically relevant. In addition, the SI was calculated using the ratio between cytotoxicity in NHI-3T3 cells (GL50) and activity in the parasite forms (IC50).

rCPB2.8 [3] = target: T1, rCPB2.8; assay: Enzyme kinetics and mechanism of inhibition of rCPB2.8; type: biochemical; details: for α: factor of formation of the ESI complex; for β: factor of formation of the IEI complex; for γ: factor of formation of the IESI complex; for mechanism: key: NCPC: non-competitive inhibition with positive cooperativity; SLNC: simple linear non-competitive inhibition
Experimental: (§1) Studies of cysteine proteases rCPB2.8, rCPB3, and rH84Y inhibition kinetics were performed in different concentrations of Z-FR-AMC in the presence and absence of compounds using 100 mM sodium acetate buffer containing 5 mM EDTA, 100 mM NaCl, 0.01% Triton X-100, and 20% glycerol, at pH 5.5. Aliquots of the enzymes were pre-incubated with 5 mM DTT for 5 min at 37 °C. For every kinetic measurement, the compounds were pre-incubated with each enzyme for 10 min before adding the substrate. All kinetic assays were performed in duplicate. Inhibition constants were determined using different equations, depending on the inhibition mechanism. The assumed KM values of rCPB2.8, rCPB3, and rH84Y for Z-FR-AMC were 3.23 µM, 2.99 µM, and 2.80 µM, respectively. The data of the activity rate and substrate concentration generated rectangular hyperbolic profiles that were linearised using the Lineweaver–Burk double-reciprocal plot. The replot profiles of the slope vs. inhibitor and intercept vs. inhibitor provided Ki and αKi parameters, respectively. If the replots present a parabolic profile, the system involves the participation of a second molecule of the compound, which can bind the enzyme complexed to the first compound (EI), forming IEI, and bind to the ESI complex, forming IESI. Linearisation is required, generating the 1/Kslope vs. inhibitor and 1/Kintercept vs. inhibitor replots, according to Equations (2) and (3). (2) 1/Kslope=1/Ki+[I]/βKi2, (3) 1/Kintercept=1/αKi+[I]/αγKi2, where Ki is the inhibitory constant, [I] is the concentration of inhibitor, α is the factor of formation of the ESI complex (enzyme–substrate–inhibitor complex), β is the factor of formation of the IEI complex (inhibitor–enzyme–inhibitor complex), and γ is the factor of formation of the IESI complex (inhibitor–enzyme–substrate–inhibitor complex) according to the general mechanism (Figure 8). Furthermore, β and γ measure the cooperativity between the binding of the first and second inhibitor molecules to form IEI and IESI, respectively.

rH84Y = rH84Y (Leishmania mexicana, UniProt P36400, D186N/D189S/H209Y/N185D, form not given); assay: Enzyme kinetics and mechanism of inhibition of rH84Y; type: biochemical; details: for α: factor of formation of the ESI complex; for mechanism: key: NCPC: non-competitive inhibition with positive cooperativity; SLNC: simple linear non-competitive inhibition
Chain of rH84Y (P36400 126-343 D186N/D189S/H209Y/N185D): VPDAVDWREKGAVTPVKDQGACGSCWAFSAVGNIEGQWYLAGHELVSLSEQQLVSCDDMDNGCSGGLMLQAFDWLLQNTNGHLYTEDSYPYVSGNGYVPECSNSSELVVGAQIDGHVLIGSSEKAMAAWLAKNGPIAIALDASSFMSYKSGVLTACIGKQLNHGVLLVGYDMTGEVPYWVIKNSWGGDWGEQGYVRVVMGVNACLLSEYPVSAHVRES
Experimental: as §1

rCPB3 = rCPB3 (Leishmania mexicana, UniProt P36400, D186N/D189S/N185D, form not given); assay: Enzyme kinetics and mechanism of inhibition of rCPB3; type: biochemical; details: for α: factor of formation of the ESI complex; for mechanism: key: NCPC: non-competitive inhibition with positive cooperativity; SLNC: simple linear non-competitive inhibition
Chain of rCPB3 (P36400 126-343 D186N/D189S/N185D): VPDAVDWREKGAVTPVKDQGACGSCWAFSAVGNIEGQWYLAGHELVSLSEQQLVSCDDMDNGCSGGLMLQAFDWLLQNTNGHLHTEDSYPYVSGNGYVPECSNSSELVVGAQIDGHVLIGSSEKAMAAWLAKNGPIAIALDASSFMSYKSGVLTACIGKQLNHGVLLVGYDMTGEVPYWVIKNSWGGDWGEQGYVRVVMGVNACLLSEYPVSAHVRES
Experimental: as §1

[4] = factor of formation of the IEI complex
[5] = factor of formation of the IESI complex

Structure (SMILES): O=C(/C=C/c1ccc2c(c1)OCO2)c1ccc(Cl)cc1 [Compound 1b, (E)-3-(benzo[d][1, 3]dioxol-5-yl)-1-(4-chlorophenyl)prop-2-en-1-one]
- IC50 [1]: > 10 µg/mL
- IC50 (rCPB2.8 [2]): 7420 ± 250 nM
- NIH/3T3 Cells GL50 (NIH/3T3 fibroblasts): 811.27 µM

Structure (SMILES): COc1ccc(/C=C/C(=O)c2cc(F)ccc2O)cc1 [Compound 4a, (E)-1-(5-fluoro-2-hydroxyphenyl)-3-(4-methoxyphenyl)prop-2-en-1-one]
- IC50 [1]: > 10 µg/mL
- IC50 (rCPB2.8 [2]): 3350 ± 170 nM
- NIH/3T3 Cells GL50 (NIH/3T3 fibroblasts): 901.09 µM

Structure (SMILES): COc1ccc(/C=C/C(=O)c2cc(Cl)ccc2O)cc1 [Compound 3a, (E)-1-(5-chloro-2-hydroxyphenyl)-3-(4-methoxyphenyl)prop-2-en-1-one]
- SI (selectivity index) [1]: >1443.10
- IC50 [1]: 600 nM
- IC50 (rCPB2.8 [2]): 7110 ± 320 nM
- NIH/3T3 Cells GL50 (NIH/3T3 fibroblasts): >865.86 µM
- Cytotoxicity against mammal cells (in words) (NIH/3T3 fibroblasts; NIH/3T3 cells): noncytotoxic

Structure (SMILES): CN(C)c1ccc(-c2oc3ccc(Cl)cc3c(=O)c2O)cc1 [f13c, 6-chloro-2-(4-(dimethylamino)phenyl)-3-hydroxy-4H-chromen-4-one]
- IC50 [1]: > 10 µg/mL
- IC50 (rCPB2.8 [2]): 14200 ± 650 nM
- NIH/3T3 Cells GL50 (NIH/3T3 fibroblasts): >791.76 µM

Structure (SMILES): COc1ccc(-c2oc3ccc(Cl)cc3c(=O)c2O)cc1 [f13a, 6-chloro-3-hydroxy-2-(4-methoxyphenyl)-4H-chromen-4-one]
- SI (selectivity index) [1]: >764.70
- IC50 [1]: 1080 nM
- IC50 (rCPB2.8 [2]): 1880 ± 70 nM
- NIH/3T3 Cells GL50 (NIH/3T3 fibroblasts): >825.87 µM

Structure (SMILES): C[C@@H]1[C@H](O)[C@@H](C)/C=C/C=C/C=C/C=C/C=C/C=C/C=C/[C@H](O[C@@H]2O[C@H](C)[C@@H](O)[C@H](N)[C@@H]2O)C[C@@H]2O[C@](O)(C[C@@H](O)C[C@@H](O)[C@H](O)CC[C@@H](O)C[C@@H](O)CC(=O)O[C@H]1C)C[C@H](O)[C@H]2C(=O)O [Amphotericin B, reference compound]
- IC50 [1]: 100 nM

Structure (SMILES): O=C(/C=C/c1ccc2c(c1)OCO2)c1cc(Cl)ccc1O [Compound 3b, (E)-3-(benzo[d][1, 3]dioxol-5-yl)-1-(5-chloro-2-hydroxyphenyl)prop-2-en-1-one]
- SI (selectivity index) [1]: 61.59
- IC50 [1]: 960 nM
- IC50 (rCPB2.8 [2]): 18400 ± 1220 nM
- NIH/3T3 Cells GL50 (NIH/3T3 fibroblasts): 59.13 µM

Structure (SMILES): COc1ccc(/C=C/C(=O)c2ccccc2O)cc1 [Compound 2a, (E)-1-(2-hydroxyphenyl)-3-(4-methoxyphenyl)prop-2-en-1-one]
- SI (selectivity index) [1]: 1324
- IC50 [1]: 710 nM
- IC50 (rCPB2.8 [2]): 2350 ± 190 nM
- NIH/3T3 Cells GL50 (NIH/3T3 fibroblasts): 940.14 µM

Structure (SMILES): CN(C)c1ccc(-c2oc3ccccc3c(=O)c2O)cc1 [f12c, 2-(4-(dimethylamino)phenyl)-3-hydroxy-4H-chromen-4-one]
- SI (selectivity index) [1]: 1039.90
- IC50 [1]: 730 nM
- IC50 (rCPB2.8 [2]): 10300 ± 390 nM
- NIH/3T3 Cells GL50 (NIH/3T3 fibroblasts): 759.13 µM

Structure (SMILES): O=C(/C=C/c1ccc2c(c1)OCO2)c1ccccc1O [Compound 2b, (E)-3-(benzo[d][1, 3]dioxol-5-yl)-1-(2-hydroxyphenyl)prop-2-en-1-one]
- IC50 [1]: > 10 µg/mL
- IC50 (rCPB2.8 [2]): 20600 ± 1060 nM
- Times less efficient in inhibiting rCPB2.8 than compound 2a (rCPB2.8 [2]; ratio of IC50 values): 8.78 times
- NIH/3T3 Cells GL50 (NIH/3T3 fibroblasts): 910.58 µM

Structure (SMILES): COc1cccc2c1C(=O)c1c(O)c3c(c(O)c1C2=O)C[C@@](O)(C(=O)CO)C[C@@H]3O[C@H]1C[C@H](N)[C@H](O)[C@H](C)O1 [Doxorubicin, reference compound]
- NIH/3T3 Cells GL50 (NIH/3T3 fibroblasts): 0.05 µM

Structure (SMILES): COc1ccc(-c2oc3ccccc3c(=O)c2O)cc1 [f12a, 3-hydroxy-2-(4-methoxyphenyl)-4H-chromen-4-one]
- IC50 [1]: > 10 µg/mL
- Formation of IESI favoured by binding of the first molecule (rCPB2.8 [3]): 50 fold
- Mechanism (rCPB2.8 [3]): NCPC
- αKi (rCPB2.8 [3]): 10.7 ± 1.1 µM
- Ki (rCPB2.8 [3]; Ki): 12400 ± 1400 nM
- α (rCPB2.8 [3]): 1
- β (rCPB2.8 [3]): 0.29
- γ (rCPB2.8 [3]): 0.02
- Ki (rCPB2.8 [3]; βKi): 3650 ± 390 nM
- Ki (rCPB2.8 [3]; γKi): 250 ± 30 nM
- IC50 (rCPB2.8 [2]): 4720 ± 380 nM
- Mechanism (rH84Y): SLNC
- αKi (rH84Y): 11.2 ± 0.5 µM
- α (rH84Y): 1
- Mechanism (rCPB3): SLNC
- αKi (rCPB3): 7.50 ± 0.66 µM
- α (rCPB3): 1
- NIH/3T3 Cells GL50 (NIH/3T3 fibroblasts): >931.93 µM

Structure (SMILES): CN(C)c1ccc(/C=C/C(=O)c2cc(Cl)ccc2O)cc1 [Compound 3c, (E)-1-(5-chloro-2-hydroxyphenyl)-3-(4-(dimethylamino)phenyl)prop-2-en-1-one]
- IC50 [1]: > 10 µg/mL
- Formation of IEI favoured by binding of the first molecule (rCPB2.8 [3]): 182 fold
- Formation of IESI favoured by binding of the first molecule (rCPB2.8 [3]): 87 fold
- Mechanism (rCPB2.8 [3]): NCPC
- αKi (rCPB2.8 [3]): 147 ± 28 µM
- Ki (rCPB2.8 [3]; Ki): 100000 ± 18000 nM
- α (rCPB2.8 [3]): 1.47
- β (rCPB2.8 [3]): 0.0055
- γ (rCPB2.8 [3]): 0.0115
- Ki (rCPB2.8 [3]; βKi): 550 ± 100 nM
- Ki (rCPB2.8 [3]; γKi): 1150 ± 210 nM
- IC50 (rCPB2.8 [2]): 3970 ± 80 nM
- Formation of IEI favoured by binding of the first molecule (rH84Y): 20 fold
- Formation of IESI favoured by binding of the first molecule (rH84Y): 28 fold
- Mechanism (rH84Y): NCPC
- αKi (rH84Y): 127 ± 20 µM
- α (rH84Y): 4.31
- β (rH84Y; [4]): 0.049
- γ (rH84Y; [5]): 0.036
- Formation of IEI favoured by binding of the first molecule (rCPB3): sevenfold
- Formation of IESI favoured by binding of the first molecule (rCPB3): 20 fold
- Mechanism (rCPB3): NCPC
- αKi (rCPB3): 141 ± 27 µM
- α (rCPB3): 9.15
- β (rCPB3; [4]): 0.14
- γ (rCPB3; [5]): 0.05
- NIH/3T3 Cells GL50 (NIH/3T3 fibroblasts): >828.44 µM

Structure (SMILES): N=C(N)c1ccc(OCCCCCOc2ccc(C(=N)N)cc2)cc1 [Pentamidine, reference compound]
- IC50 [1]: 800 nM

Structure (SMILES): O=C(/C=C/c1ccc2c(c1)OCO2)c1cc(F)ccc1O [Compound 4b, (E)-3-(benzo[d][1, 3]dioxol-5-yl)-1-(5-fluoro-2-hydroxyphenyl)prop-2-en-1-one]
- IC50 [1]: 1950 nM
- IC50 (rCPB2.8 [2]): 6610 ± 410 nM
- NIH/3T3 Cells GL50 (NIH/3T3 fibroblasts): >873.36 µM
